Columns and labels:
Test in all cases: biochemical
Type in all cases: in vitro ADME
CYP3A4 = target: T1, CYP3A4 (Homo sapiens, UniProt P08684)
T1 construct: consisting of pooled HLMs (0.5 mg/ml) or RLMs (1 mg/ml) and an NADPH-regenerating system; tissue Corning Gentest Corporation; host or cells: pooled human liver microsomes (n = 20)
Procedure: (§1) Microsomal incubation was carried out at 37 °C in a mixture of 200 μl in 0.05 M Tris/HCl buffer (pH 7.4) consisting of pooled HLMs (0.5 mg/ml) or RLMs (1 mg/ml) and an NADPH-regenerating system including MgCl2 (5 mM), G6P (10 mM), G6PDH (0.4 U/ml) and NADP (1 mM). Substrates were added into the incubation mixture and obtained the final concentrations (10 μM phenacetin for CYP1A2, 20 μM bupropion for CYP2B1/6, 20 μM tolbutamide for CYP2C9/11, 5 μM dextromethorphan for CYP2D1/6, 20 μM chlorzoxazone for CYP2E1 and 10 μM midazolam for CYP3A2/4), which were close to Km respectively. The proportion of organic solvent was not higher than 1% (v/v) in the incubation mixture. After pre-incubation for 5 min, the reaction was initiated by addition of NADP. Incubations were performed for 20 min, stopped by adding 200 μl ice-cold acetonitrile. And then 20 μl internal standard solution was added (3-acetamidophenol 2 μg/ml, chlorpropamide 2 μg/ml and mebendazole 2 μg/ml). The solution was mixed thoroughly for 3 min and centrifuged for 10 min at 16,000 × g at 4 °C. The supernatant (60 μl) was transferred to autosampler vials, and 2 μl was injected into LC-MS/MS system.
(§2) The IC50 (concentration of inhibitor to cause 50% inhibition of original enzyme activity) values were determined with the same incubation condition above. The specific concentrations of plumbagin were ranged from 0.1 μM to 50 μM. The IC50 values were calculated by plotting relative activities over the logarithm of plumbagin concentrations using GraphPad Prism 5.0 (GraphPad software Inc., CA, USA).
(§3) Cocktail probe substrates were then added and incubated for 20 min. Reactions were stopped with 200 μl ice-cold acetonitrile. The samples were treated according to the microsomal incubation method and then injected into LC-MS/MS for analysis.
(§4) Kinetic studies were performed for determining the types of inhibition on CYP by plumbagin. Pooled HLMs (0.5 mg/ml) or RLMs (1 mg/ml) with plumbagin (1 μM, 2 μM, 5 μM and 10 μM) were incubated in 0.05 M Tris/HCl buffer (pH 7.4) for 20 min at 37 °C. A series of concentrations for cocktail probe substrates were used: 2.5–20 μM phenacetin for CYP1A2; 5–40 μM bupropion for CYP2B1/6; 5–40 μM tolbutamide for CYP2C9/11; 1.25–10 μM dextromethorphan for CYP2D1/6; 5–40 μM chlorzoxazone for CYP2E1; 2.5–80 μM midazolam for CYP3A2; and 0.625–5 μM midazolam for CYP3A4. Enzyme kinetics as well as statistical analysis were performed using GraphPad Prism 5.0.
(§5) All data were presented as mean ± SD. The IC50 values were fitted by non-linear regression analysis using GraphPad Prism 5.0. The kinetic parameters were obtained by fitting velocity data to kinetic models (Michaelis-Menten) using GraphPad Prism 5.0. The Lineweaver-Burk Plot (the reciprocal of reaction velocities versus the reciprocal of substrates concentrations) was used to determine the quality of fit to a specific inhibition model. The inhibition constant (Ki) was obtained by a secondary plot using the slopes of the primary Lineweaver-Burk Plot (Km/Vmax versus inhibitor concentrations). αKi was obtained from a secondary plot using the y-intercepts of the Lineweaver-Burk plot (1/Vmax versus inhibitor concentrations). All results were analyzed in quadruplicate. One-way analysis of variance was used to estimate the significance of differences. There was statistical significance between control and test groups if p < 0.05.

CYP1A2 = target: T2, CYP1A2 (Homo sapiens, UniProt P05177)
T2 construct: consisting of pooled HLMs (0.5 mg/ml) or RLMs (1 mg/ml) and an NADPH-regenerating system; tissue Corning Gentest Corporation; host or cells: pooled human liver microsomes (n = 20)
T2 sequence (P05177 1-516): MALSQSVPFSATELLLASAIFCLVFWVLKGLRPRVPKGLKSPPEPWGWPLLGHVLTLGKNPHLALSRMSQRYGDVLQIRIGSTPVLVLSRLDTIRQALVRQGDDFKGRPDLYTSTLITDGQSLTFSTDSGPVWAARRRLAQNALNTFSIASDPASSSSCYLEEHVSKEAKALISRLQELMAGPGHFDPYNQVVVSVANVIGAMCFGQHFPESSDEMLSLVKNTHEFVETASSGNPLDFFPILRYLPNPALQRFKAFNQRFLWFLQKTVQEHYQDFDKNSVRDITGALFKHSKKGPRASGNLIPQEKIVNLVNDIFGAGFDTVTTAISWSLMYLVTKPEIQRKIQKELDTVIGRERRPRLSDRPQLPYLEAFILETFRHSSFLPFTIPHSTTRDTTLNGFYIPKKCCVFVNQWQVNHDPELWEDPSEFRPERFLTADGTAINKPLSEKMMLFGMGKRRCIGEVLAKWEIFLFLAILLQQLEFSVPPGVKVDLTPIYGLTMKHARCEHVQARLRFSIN
Procedure: as §1, §2, §3, §4, §5

CYP2B6 = target: T3, CYP2B6 (Homo sapiens, UniProt P20813)
T3 construct: consisting of pooled HLMs (0.5 mg/ml) or RLMs (1 mg/ml) and an NADPH-regenerating system; tissue Corning Gentest Corporation; host or cells: pooled human liver microsomes (n = 20)
T3 sequence (P20813 1-491): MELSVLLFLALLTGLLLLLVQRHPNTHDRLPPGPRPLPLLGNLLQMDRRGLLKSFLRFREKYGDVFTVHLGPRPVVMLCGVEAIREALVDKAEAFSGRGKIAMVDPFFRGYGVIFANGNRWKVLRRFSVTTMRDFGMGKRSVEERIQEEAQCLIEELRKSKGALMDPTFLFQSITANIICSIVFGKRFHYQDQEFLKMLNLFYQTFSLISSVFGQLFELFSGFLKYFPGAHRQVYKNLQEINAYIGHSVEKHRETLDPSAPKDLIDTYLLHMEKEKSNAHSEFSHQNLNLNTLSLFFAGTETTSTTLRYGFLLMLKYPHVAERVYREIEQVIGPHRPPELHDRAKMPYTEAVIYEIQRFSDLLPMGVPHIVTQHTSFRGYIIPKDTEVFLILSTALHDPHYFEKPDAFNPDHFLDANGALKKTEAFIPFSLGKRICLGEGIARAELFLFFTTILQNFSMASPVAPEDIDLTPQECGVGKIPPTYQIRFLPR
Procedure: as §1, §2, §3, §4, §5

T1 sequence (P08684 whole entry): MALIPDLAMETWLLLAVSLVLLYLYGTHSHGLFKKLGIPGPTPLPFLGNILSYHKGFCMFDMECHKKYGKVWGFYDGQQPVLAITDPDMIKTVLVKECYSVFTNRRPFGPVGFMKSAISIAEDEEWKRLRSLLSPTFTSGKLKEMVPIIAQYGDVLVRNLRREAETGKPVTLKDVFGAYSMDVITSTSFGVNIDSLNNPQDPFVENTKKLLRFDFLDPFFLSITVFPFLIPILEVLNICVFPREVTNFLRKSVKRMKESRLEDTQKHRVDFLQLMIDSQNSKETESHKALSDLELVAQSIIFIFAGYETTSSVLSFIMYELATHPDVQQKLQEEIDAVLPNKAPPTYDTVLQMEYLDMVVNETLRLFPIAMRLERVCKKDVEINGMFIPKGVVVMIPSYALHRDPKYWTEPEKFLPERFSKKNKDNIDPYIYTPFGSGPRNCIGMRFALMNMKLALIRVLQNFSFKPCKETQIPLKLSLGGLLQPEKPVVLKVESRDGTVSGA

CC1=CC(=O)c2c(O)cccc2C1=O [plumbagin, 5-hydroxy-2-methyl-1,4-naphthoquinone]
IC50 (CYP3A4): 6.45 µM
Ki (CYP3A4): 0.88 µM
Type of inhibition (CYP3A4): mixed-type
α (CYP3A4; human, 20 min, pH 7.4): 1.54
αKi (CYP3A4; human, 20 min, pH 7.4): 0.57 µM
IC50 (CYP1A2): 7.49 µM
Ki (CYP1A2): 0.15 µM
Type of inhibition (CYP1A2): non-competitive
α (CYP1A2; human, 20 min, pH 7.4): 0.94
αKi (CYP1A2; human, 20 min, pH 7.4): 0.16 µM
IC50 (CYP2B6): 13.1 µM
Ki (CYP2B6): 1.62 µM
Type of inhibition (CYP2B6): mixed-type
α (CYP2B6; human, 20 min, pH 7.4): 0.55
αKi (CYP2B6; human, 20 min, pH 7.4): 2.92 µM

Reference: paper PMC4916434, “Evaluation of the inhibition potential of plumbagin against cytochrome P450 using LC-MS/MS and cocktail approach” (Scientific Reports, 2016)
